{"source": "patent US11918618B2", "about": "“Composition for preventing or treating gastritis or peptic ulcer” (CHONG KUN DANG PHARMACEUTICAL CORP., priority 2017, dated 2024)", "key": {"[1]": {"test_system": "stomach ulcer", "test": "Inhibition of Indomethacin-induced stomach ulcer in rats (stomach ulcer index)", "type": "in vivo", "conditions": "rat, single oral dose 75.0 mg/kg, Indomethacin 80 mg/kg", "protocol": "In order to confirm the inhibition rate of stomach ulcer of the Example 1 and Comparative examples 1 to 6, the test was carried out according to the following method. Test animals were randomly assigned to 10 animals of specific pathogen free (SPF) 7-week-old rat males per group so that the average body weight was maximally uniformly distributed throughout the adaptation period (7 days). […] All animals were fasted 48 hours before administration of test substances and control drug, and then each of test substances and control drug was orally administered, and Indomethacin previously prepared 30 minutes after administration was orally administered at a dose of 80 mg/kg. After anesthetizing with diethyl ether 5 hours after administration of Indomethacin, stomach was removed and the gastric mucosa was photographed with a digital camera. The area of the damaged site was analyzed using ImageJ software (NIH, Bethesda, Md.). The stomach ulcer index was measured according to the following Equation 1. Stomach ulcer index (%)=(damage area/total area)×100 [Equation 1] The stomach ulcer test by volume for the Example 1 was tested by the method as Experimental example 1, and was shown in Table 5."}, "[2]": {"test_system": "PGE2", "test": "Improvement of PGE2 in serum (PGE2 ELISA Kit) of Indomethacin-treated rats", "type": "in vivo", "conditions": "rat serum, oral dose 100.0 mg/kg", "description": "Since the recovery mechanism of stomach mucous membrane blood stream and epithelial cells is maintained and the action of preserving cells of the stomach mucous membrane was shown, when PGE2 in serum is increased, the enhanced improvement of PGE2 affects treatment of gastritis or stomach ulcer. In order to confirm the effect of the Example 1 and Comparative examples 2, 5 to 6 according to the present invention for this improvement of PGE2, for the blood collected in Test example 2, serum was separated according to the protocol provided by the manufacturer of PGE2 ELISA Kit and then sampling treatment was carried out, and then it was analyzed, and the result was shown in the following Table 4."}, "[3]": {"test_system": "stomach mucus", "test": "Effect of improving stomach mucosal amount (alcian blue binding) in Indomethacin-treated rats", "type": "in vivo", "conditions": "rat, oral dose 100.0 mg/kg, Indomethacin 80 mg/kg", "protocol": "In order to confirm the effect of improving the mucosal amount of the Example 1 and Comparative examples 1 to 6, the test was carried out according to the following method. Test animals were randomly assigned to 10 animals of specific pathogen free (SPF) 7-week-old rat males per group so that the average body weight was maximally uniformly distributed throughout the adaptation period (7 days). All animals were fasted 48 hours before administration and then test substances and control drug were orally administered, and 30 minutes after administration, Indomethacin 80 mg/kg was orally administered. […] After mixing the extract solution with diethyl ether in the same amount and shaking, it was centrifuged at 3,500 rpm for 10 minutes and for the supernatant, the absorbance was measured at 605 nm. 0.1% w/v alcian blue 8 GX solution was diluted with 0.25 M sucrose solution and standard solution was prepared and thereby a standard curve was fabricated and the measured absorbance value was converted into the amount of alcian blue combined with the stomach mucus, and the result was shown in Table 3."}, "[4]": {"conditions": "reported in the literature; cited from earlier work"}}}
{"smiles": "CNC(=C[N+](=O)[O-])NCCSCc1ccc(CN(C)C)o1", "note": "[Comparative example 4, Ranitidine]", "values": [{"measurement": "Inhibition rate (%), compared to the induced group", "setting": "[1]", "value": 97.0, "unit": "%"}, {"measurement": "Stomach ulcer index (%)", "setting": "[1]", "value": "0.20 ± 0.29", "unit": "%"}]}
{"smiles": "O=C(NC(Cc1cc(=O)[nH]c2ccccc12)C(=O)O)c1ccc(Cl)cc1", "note": "(stereo not shown) [Comparative example 5, Rebamipide]", "values": [{"measurement": "PGE2", "setting": "[2]", "value": "1.82 ± 0.14", "unit": "ng/mL"}, {"measurement": "PGE2, % compared to the normal group", "setting": "[2]; normal group 100, induced group 0", "value": 77.7, "unit": "%"}, {"measurement": "Mucosal amount", "setting": "[3]", "value": "10.6 ± 3.7", "unit": "µg/L"}, {"measurement": "Mucosal amount, % compared to the normal group", "setting": "[3]", "value": 94.6, "unit": "%"}]}
{"smiles": "O=C/C=C/c1ccccc1", "note": "[cinnamic aldehyde]", "values": [{"measurement": "stability at the room temperature", "setting": "[4]", "value": "low"}]}
